The values that follow come from ChEMBL document CHEMBL1201862, “PubChem BioAssay data set” (2004).

Test [1] deals with Lytic switch protein BZLF1 (Epstein-Barr virus (strain B95-8) (HHV-4) (Human herpesvirus 4), UniProt P03206). In words: inhibition of BZLF1 ZTA DNA binding – biochemical, fluorescence polarization, Epstein-Barr virus, 1536-well, counter-screen for EBNA-1 inhibitor project, dose response (AID 2377).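 Note: fluorescence polarization of Cy5-labelled ZRE DNA probe bound by purified Zta.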 Also noted: species or system human gammaherpesvirus 4. (In general: Polarisation of emitted light reports the rotation of a fluorescent probe.)
Chain of Lytic switch protein BZLF1 (P03206 whole entry): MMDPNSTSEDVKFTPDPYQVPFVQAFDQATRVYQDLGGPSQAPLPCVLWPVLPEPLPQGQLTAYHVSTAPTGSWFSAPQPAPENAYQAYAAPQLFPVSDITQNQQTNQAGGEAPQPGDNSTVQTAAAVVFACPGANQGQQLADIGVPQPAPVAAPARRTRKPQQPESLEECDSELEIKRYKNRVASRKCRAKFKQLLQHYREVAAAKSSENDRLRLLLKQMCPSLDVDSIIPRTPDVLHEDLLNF

The target in test [2] is Epstein-Barr nuclear antigen 1 (Epstein-Barr virus (strain B95-8) (HHV-4) (Human herpesvirus 4), UniProt P03211). In words: inhibition of EBV nuclear antigen 1 DNA binding – biochemical, fluorescence polarization, 1536-well, dose response (AID 2381).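 Note: fluorescence polarization of a Cy5 DNA probe bound by EBNA-1 protein.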 Also on record: species or system human gammaherpesvirus 4.
Chain of Epstein-Barr nuclear antigen 1 (P03211 whole entry): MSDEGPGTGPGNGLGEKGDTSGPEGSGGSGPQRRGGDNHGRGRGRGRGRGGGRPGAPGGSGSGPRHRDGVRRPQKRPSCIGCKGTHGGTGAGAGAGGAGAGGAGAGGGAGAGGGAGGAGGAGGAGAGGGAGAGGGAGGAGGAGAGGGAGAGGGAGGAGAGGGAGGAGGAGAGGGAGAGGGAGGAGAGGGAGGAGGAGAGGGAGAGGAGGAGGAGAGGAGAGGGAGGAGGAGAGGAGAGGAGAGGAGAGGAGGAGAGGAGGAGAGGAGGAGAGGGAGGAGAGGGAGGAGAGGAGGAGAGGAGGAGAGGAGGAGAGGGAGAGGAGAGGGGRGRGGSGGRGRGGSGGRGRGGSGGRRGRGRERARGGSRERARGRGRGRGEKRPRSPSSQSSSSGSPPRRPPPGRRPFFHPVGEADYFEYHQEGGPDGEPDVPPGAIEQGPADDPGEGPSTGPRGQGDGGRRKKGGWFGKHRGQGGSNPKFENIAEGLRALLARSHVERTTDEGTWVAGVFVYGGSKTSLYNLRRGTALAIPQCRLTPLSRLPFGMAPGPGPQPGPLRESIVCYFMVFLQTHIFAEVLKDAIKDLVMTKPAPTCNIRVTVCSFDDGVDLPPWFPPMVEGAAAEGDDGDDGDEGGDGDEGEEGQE
The next test has as its system HT-1080. In words: HT1080 cell viability loss – fluorescence readout (AID 620). Type of test: functional, cell-based. The note with it: Homo sapiens.
Test [3] has as its target Glyceraldehyde-3-phosphate dehydrogenase (Homo sapiens, UniProt P04406).
Test [4] deals with Luciferin 4-monooxygenase (Photinus pyralis, UniProt P08659). Kind of test: Counter Screen for Luciferase-based Assay Positives. [Related pubchem assays: 620, 618, 411 ]. On the technique in general: Counterscreens check selectivity or assay interference.
Chain of Luciferin 4-monooxygenase (P08659 whole entry): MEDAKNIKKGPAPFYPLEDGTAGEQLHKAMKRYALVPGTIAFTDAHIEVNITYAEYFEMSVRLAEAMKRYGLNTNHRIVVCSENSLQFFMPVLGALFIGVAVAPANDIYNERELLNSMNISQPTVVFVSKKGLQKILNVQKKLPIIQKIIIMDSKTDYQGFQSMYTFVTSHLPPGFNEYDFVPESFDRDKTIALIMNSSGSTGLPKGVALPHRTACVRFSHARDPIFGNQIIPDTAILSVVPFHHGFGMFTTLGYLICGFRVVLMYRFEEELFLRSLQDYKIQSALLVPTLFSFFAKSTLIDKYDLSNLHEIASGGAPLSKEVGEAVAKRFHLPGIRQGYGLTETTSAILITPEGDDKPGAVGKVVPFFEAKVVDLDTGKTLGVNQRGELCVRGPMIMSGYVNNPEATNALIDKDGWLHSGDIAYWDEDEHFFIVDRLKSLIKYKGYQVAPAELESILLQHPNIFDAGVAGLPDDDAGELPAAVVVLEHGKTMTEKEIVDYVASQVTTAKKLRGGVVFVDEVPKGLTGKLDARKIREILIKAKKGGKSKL
Test [5] addresses T1, Neuropeptide Y receptor type 1 (Homo sapiens, UniProt P25929).
T1 sequence (P25929 whole entry): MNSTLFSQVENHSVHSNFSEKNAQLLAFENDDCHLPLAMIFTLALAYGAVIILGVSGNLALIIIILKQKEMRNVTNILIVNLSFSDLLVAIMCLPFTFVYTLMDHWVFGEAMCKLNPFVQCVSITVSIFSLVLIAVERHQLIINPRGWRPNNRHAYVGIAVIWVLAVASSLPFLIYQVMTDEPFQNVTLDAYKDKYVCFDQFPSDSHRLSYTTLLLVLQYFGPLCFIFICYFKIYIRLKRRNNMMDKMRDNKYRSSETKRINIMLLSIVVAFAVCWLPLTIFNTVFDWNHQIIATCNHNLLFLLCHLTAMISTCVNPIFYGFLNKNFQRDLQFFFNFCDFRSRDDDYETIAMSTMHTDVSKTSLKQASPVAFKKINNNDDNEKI
Type of test: functional.

The target of test [6] is T2, Short transient receptor potential channel 4 (Mus musculus, UniProt Q9QUQ5).
T2 sequence (Q9QUQ5 whole entry): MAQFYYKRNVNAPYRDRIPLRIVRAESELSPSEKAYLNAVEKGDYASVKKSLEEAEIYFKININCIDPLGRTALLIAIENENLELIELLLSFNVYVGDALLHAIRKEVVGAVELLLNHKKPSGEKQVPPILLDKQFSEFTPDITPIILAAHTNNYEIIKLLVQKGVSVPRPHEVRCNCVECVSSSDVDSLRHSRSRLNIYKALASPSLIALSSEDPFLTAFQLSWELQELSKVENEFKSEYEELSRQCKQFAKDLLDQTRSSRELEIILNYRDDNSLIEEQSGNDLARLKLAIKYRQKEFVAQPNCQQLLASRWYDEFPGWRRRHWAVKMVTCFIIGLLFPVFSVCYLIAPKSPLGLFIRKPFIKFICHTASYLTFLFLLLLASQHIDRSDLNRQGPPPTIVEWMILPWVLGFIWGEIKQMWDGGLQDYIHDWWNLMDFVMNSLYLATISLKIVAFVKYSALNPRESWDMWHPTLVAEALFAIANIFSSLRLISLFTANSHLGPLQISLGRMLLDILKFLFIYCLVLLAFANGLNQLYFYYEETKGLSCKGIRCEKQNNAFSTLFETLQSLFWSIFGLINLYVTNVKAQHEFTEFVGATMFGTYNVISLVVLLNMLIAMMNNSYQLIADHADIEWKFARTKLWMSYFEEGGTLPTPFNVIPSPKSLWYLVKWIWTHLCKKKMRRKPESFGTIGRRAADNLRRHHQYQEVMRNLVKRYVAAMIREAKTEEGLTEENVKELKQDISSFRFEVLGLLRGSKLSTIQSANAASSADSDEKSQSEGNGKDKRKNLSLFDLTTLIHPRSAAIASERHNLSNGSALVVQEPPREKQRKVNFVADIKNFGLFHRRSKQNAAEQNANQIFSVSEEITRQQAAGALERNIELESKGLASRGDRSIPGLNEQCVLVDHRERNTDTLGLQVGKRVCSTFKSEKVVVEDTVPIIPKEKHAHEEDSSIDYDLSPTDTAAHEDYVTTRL
Kind of test: block of DAMGO-driven TRPC4 calcium entry – cell-based, HEK293 TRPC4/mu-opioid, Fluo-4 calcium, dose response (AID 434942).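 Note: potency of inhibitors blocking the TRPC4 calcium response.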 Type of test: functional.

Test [7] concerns the target T3, Neuropeptide Y receptor type 2 (Homo sapiens, UniProt P49146).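 Note: HEK293 cells expressing the receptor and a CNG channel; stimulus was NPY near EC95 followed by isoproterenol to raise cAMP; antagonist potency measured as restoring cAMP signal that NPY suppresses.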
T3 sequence (P49146 whole entry): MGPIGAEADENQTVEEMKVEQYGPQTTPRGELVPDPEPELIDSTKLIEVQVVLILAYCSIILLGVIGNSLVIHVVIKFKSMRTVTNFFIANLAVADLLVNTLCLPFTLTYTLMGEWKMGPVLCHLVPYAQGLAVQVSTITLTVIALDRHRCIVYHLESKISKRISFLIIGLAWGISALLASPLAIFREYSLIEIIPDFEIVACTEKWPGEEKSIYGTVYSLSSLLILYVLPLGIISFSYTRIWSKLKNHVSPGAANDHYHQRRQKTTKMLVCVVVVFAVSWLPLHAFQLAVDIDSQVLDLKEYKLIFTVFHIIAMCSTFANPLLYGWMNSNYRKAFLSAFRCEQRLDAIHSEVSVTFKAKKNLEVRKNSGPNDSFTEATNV
Type of test: functional, cell-based.

A further test addresses T4, NADPH oxidase 1 (Homo sapiens, UniProt Q9Y5S8).
T4 sequence (Q9Y5S8 whole entry): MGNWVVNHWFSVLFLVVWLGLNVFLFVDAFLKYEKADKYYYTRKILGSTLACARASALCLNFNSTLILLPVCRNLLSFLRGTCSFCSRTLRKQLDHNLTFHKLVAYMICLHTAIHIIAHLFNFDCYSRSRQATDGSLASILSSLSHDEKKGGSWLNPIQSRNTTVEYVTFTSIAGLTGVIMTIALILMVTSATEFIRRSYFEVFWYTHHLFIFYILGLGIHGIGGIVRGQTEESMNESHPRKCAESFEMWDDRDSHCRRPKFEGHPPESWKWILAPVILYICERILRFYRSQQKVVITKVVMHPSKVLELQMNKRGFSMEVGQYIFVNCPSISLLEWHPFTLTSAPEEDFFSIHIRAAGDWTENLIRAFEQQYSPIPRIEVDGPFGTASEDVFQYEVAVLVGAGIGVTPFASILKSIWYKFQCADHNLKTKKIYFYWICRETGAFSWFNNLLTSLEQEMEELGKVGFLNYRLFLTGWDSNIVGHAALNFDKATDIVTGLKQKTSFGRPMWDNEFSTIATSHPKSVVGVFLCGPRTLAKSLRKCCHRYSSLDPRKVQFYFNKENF
Type of test: functional, cell-based.

The target in a further test is Procathepsin L (Homo sapiens, UniProt P07711).
Chain of Procathepsin L (P07711 whole entry): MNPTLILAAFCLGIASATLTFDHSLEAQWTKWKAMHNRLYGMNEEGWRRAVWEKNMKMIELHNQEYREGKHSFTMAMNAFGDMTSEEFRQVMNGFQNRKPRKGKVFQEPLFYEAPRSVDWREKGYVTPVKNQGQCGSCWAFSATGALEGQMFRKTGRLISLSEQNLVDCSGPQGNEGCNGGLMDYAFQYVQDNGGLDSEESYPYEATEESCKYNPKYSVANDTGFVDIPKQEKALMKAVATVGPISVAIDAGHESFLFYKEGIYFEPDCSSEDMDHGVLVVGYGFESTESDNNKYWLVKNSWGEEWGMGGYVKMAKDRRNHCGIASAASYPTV
Another test has as its target T5, Aspartyl aminopeptidase (Plasmodium falciparum 3D7, UniProt Q8I2J3).
T5 sequence (Q8I2J3 whole entry): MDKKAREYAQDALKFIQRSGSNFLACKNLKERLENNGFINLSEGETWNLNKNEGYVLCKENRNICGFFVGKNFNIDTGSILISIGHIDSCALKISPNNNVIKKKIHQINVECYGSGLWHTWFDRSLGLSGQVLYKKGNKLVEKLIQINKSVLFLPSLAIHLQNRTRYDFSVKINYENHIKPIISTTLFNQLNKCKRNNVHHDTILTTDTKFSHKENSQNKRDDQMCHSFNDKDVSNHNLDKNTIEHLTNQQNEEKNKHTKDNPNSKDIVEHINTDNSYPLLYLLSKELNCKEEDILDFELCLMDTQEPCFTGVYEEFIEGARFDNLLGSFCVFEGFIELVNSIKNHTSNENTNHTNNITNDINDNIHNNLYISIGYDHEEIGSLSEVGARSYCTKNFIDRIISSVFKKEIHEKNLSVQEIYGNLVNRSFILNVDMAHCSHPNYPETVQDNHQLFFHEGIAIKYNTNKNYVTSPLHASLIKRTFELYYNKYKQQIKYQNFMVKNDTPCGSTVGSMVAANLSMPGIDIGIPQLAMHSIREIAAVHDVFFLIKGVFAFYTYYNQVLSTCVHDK

The target of a further test is Ion channel NompC (Danio rerio, UniProt Q7T1G6). Kind of test: Fluorescence counterscreen assay for TRPML3 agonists: dose response cell-based high-throughput screening assay to identify agonists of the transient receptor potential channel N1 (TRPN1). [Related pubchem assays: 1526, 1424, 1448 ]. Type of test: functional.
Chain of Ion channel NompC (Q7T1G6 whole entry): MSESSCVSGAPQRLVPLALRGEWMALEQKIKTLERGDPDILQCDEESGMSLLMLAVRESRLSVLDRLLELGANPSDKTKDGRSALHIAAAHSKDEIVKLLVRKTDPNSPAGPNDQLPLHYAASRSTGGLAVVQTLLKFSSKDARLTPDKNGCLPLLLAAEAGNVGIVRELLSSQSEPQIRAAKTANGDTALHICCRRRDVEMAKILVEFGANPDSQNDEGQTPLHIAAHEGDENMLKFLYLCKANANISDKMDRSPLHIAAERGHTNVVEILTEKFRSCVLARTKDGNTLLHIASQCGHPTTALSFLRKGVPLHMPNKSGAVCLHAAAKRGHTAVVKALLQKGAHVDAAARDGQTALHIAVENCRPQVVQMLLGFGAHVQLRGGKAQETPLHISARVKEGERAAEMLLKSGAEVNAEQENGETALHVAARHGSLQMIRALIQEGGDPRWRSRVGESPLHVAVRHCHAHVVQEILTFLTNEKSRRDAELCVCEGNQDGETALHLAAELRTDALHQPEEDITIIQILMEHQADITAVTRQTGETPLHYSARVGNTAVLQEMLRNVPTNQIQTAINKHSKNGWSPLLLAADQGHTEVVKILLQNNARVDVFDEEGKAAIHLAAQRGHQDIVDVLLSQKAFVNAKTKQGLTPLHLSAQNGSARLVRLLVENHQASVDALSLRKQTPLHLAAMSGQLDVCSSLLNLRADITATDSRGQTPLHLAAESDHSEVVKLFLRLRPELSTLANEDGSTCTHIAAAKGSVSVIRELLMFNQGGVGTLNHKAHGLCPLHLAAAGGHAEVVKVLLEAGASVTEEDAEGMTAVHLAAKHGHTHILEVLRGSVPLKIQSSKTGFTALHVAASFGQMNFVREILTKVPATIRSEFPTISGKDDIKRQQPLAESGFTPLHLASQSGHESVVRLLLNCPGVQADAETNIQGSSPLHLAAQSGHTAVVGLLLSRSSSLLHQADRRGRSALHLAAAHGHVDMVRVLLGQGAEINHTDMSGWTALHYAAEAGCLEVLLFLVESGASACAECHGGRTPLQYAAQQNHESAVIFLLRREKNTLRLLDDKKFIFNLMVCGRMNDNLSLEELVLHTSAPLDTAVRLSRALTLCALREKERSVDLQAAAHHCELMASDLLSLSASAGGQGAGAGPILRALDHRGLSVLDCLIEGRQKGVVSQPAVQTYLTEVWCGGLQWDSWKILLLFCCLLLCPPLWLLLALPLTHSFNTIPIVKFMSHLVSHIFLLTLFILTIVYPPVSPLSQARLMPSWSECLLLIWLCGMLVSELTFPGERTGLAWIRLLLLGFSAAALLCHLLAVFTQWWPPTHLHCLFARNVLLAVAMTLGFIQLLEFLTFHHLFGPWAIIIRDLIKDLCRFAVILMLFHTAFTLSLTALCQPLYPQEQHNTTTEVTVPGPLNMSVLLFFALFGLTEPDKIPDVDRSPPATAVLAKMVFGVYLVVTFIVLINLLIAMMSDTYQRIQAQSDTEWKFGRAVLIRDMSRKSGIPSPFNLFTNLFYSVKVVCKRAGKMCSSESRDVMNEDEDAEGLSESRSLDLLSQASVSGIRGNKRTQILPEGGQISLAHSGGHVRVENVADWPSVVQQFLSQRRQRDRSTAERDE
For another test, the target named is T6, Mucolipin-3 (Homo sapiens, UniProt Q8TDD5).
T6 sequence (Q8TDD5 whole entry): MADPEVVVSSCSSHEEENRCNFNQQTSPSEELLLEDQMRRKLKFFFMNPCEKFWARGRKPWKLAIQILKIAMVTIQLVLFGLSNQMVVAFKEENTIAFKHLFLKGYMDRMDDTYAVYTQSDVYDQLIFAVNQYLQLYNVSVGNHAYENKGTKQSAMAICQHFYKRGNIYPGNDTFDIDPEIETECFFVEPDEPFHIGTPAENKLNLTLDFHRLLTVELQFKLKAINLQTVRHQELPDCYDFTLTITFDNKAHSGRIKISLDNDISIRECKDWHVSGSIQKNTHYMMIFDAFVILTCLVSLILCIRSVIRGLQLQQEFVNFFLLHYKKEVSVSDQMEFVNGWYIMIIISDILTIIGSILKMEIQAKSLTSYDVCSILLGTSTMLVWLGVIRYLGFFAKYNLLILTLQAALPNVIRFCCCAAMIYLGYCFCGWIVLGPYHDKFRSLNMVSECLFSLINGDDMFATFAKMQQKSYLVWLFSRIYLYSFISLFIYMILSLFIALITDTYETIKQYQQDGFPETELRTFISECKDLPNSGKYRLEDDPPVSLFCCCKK
In words: Dose response cell-based high-throughput screening assay for agonists of the transient receptor potential channel ML3 (TRPML3). [Related pubchem assays: 1526, 1424, 1448 ]. The class given is functional.

For test [8], the target named is Voltage-gated inwardly rectifying potassium channel KCNH2 (Homo sapiens, UniProt Q12809). The note with it: Potency.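 Note: confirmatory quantitative high-throughput screen measuring inhibition of hERG channel activity.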
Chain of Voltage-gated inwardly rectifying potassium channel KCNH2 (Q12809 whole entry): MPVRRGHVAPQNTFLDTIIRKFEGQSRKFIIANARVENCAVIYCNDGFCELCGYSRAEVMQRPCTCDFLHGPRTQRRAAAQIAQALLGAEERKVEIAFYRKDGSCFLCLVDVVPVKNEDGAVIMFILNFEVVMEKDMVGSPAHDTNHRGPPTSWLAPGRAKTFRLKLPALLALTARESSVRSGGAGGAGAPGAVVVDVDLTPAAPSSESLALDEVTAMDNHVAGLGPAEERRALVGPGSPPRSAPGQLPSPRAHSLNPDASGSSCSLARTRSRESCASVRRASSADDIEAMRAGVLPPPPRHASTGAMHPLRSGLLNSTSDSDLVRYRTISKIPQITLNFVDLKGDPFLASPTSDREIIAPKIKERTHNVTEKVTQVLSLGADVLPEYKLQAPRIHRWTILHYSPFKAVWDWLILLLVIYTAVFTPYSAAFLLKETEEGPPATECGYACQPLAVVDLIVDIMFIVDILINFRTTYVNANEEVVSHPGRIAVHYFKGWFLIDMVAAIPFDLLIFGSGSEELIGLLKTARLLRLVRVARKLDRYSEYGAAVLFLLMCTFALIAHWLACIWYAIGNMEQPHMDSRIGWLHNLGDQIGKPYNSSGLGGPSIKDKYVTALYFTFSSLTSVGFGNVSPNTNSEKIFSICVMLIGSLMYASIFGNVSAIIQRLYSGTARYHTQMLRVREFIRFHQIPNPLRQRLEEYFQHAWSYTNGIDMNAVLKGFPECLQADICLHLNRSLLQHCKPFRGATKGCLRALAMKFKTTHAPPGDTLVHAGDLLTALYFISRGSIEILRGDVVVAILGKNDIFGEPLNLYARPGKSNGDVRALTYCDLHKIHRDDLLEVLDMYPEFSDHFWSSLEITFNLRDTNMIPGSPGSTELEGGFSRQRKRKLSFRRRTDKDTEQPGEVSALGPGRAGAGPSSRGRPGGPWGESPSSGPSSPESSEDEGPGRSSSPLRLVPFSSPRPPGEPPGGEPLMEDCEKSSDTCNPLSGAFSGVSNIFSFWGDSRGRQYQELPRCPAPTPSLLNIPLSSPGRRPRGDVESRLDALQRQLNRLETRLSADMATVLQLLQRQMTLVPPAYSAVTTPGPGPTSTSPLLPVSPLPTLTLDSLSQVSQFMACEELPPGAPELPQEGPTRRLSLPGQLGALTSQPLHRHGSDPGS

Where a name gives a salt, the structure may show the parent alone. Active and inactive are the calls of the source.

Chain of Glyceraldehyde-3-phosphate dehydrogenase (P04406 whole entry): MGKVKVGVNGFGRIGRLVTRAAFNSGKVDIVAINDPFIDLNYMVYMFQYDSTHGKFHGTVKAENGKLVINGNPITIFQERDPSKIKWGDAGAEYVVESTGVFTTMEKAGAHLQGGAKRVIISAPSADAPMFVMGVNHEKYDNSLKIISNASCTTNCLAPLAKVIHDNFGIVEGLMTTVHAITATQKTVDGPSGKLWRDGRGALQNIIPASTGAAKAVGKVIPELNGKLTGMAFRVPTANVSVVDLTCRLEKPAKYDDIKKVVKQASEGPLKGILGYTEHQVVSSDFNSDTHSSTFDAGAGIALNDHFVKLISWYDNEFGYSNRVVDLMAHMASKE

In general, IC50 refers to the midpoint of a concentration-inhibition curve. As to `O=C(NC(=S)Nc1ccc(S(=O)(=O)N2CCCCCC2)cc1)c1cccs1`, the IC50 in test [1] is > 111 µM (not active); in [2], 14.8 µM (not active).

What is called EC50 is the midpoint of the concentration-response curve. With `Cc1cc(C)c(C)c(S(=O)(=O)Nc2ccccc2C(=O)NCCCn2ccnc2)c1C`, the EC50 is > 50 µM (not active) in the test with HT-1080 and 61.1 µM (active) in test [4]. Further, the IC50 in [3] is > 100 µM (not active).

Consider `Cc1ccc(N=C2CCc3ccccc3N2)cc1`, for which the EC50 in [4] is 80.9 µM (active).

`C=CCNc1nc(N2CCCC2)nc2ccccc12`: the IC50 in [5] was 11.8 µM (not active); in [7] it was > 35 µM (not active). Moreover, in [6], the EC50 is 1.19 µM (active).

As to `O=C(CCC(=O)Nc1ccc(F)cc1)Nc1ccc(F)cc1`, the IC50 against NADPH oxidase 1 is recorded as > 17 µM (not active).

Take `COc1ccc(NC(=O)c2nnc(O)c3ccccc23)cc1S(=O)(=O)N1CCCCC1`: the values for the half-maximal inhibitory concentration (IC50) in test [5] and in test [7] were 21 µM (not active) and 19.6 µM (not active), respectively.

For the compound `O=C(NNC(=O)c1ccc(NC(=O)c2ccccc2)cc1)c1ccc(F)cc1`, the IC50 is > 111 µM (not active) in test [1] and 6.82 µM (active) in test [2].

For the compound `COC(=O)c1cc(C(=O)Nn2cnnc2)cc([N+](=O)[O-])c1`, the IC50 against Procathepsin L is > 59.6 µM (not active); on Aspartyl aminopeptidase, 2.37 µM (active).

As to `COc1cc(/C=N/Nc2c(Cl)c(Cl)nc(C(=O)O)c2Cl)cc(OC)c1OC`, the IC50 against NADPH oxidase 1 is > 17 µM (not active).

Consider `COc1ccc(S(=O)(=O)N2CCCCCC2)cc1Br`, for which the EC50 was > 29.9 µM (not active) on Ion channel NompC and 2.67 µM (active) on Mucolipin-3.

Broadly, the AC50 is the concentration at which the activity in the assay is half-maximal. On to `CC(C)(C)[C@]1(O)CCN2C[C@H]3c4ccccc4CCc4cccc(c43)[C@@H]2C1` [BUTACLAMOL HYDROCHLORIDE], for which the EC50 was > 29.9 µM (not active) at Ion channel NompC and 3.98 µM (active) on Mucolipin-3. For the same compound, the AC50 in test [8] was 6.31 µM (active).
